Test results: patent publication US20090221684A1, “Molecules for Gene Delivery and Gene Therapy, and Methods of Use Thereof” (priority 2005, published 2009)
Where two headings read alike, the source gives them in different places.

Legend:
[1] = tested on: GAPDH; experiment: siRNA delivery, KDalert GAPDH gene knockdown assay; assay type: cell-based; conditions: 48 hr after siRNA transfection
Method: Trypsine adherent cells and dilute in normal growth medium to 1×10^5 cells per ml. […] Dilute RNA in serum free medium. Mix the diluted RNA with the transfectant reagent, incubate for 10 min at room temperature and dispense into a culture plate. Depending on the experimental design, the ration of lipid, siRNA, pH, and incubation time was varied. Overlay cell suspension onto the transfection mixture. Incubate at 37° C. and 5% CO2. Assay for gene knockdown were assessed after 48 h depending on the experimental protocol.
The gene knockdown assay performed was KDalert™ GAPDH Assay (Ambion) following the manufacturer protocol. Briefly, 48 hr after siRNA transfection, aspirate the culture medium from transfected cells. Add 200 μl KDalert Lysis Buffer to each sample well. Incubate at 4° C. for 20 min to lyse the cells. Pipet the cell lysate up and down 4-5 times to homogenize the lysate. Transfer 10 μl of each lysate or GAPDH Enzyme dilution (including the GAPDH Working Stock) to the wells of a clean 96 well plate. Working quickly, add 90 μl of KDalert Master Mix to each sample using a multi-channel pipettor to dispense the KDalert Master Mix quickly. Measure the increase in fluorescence of the samples at room temp. Using the reagent above we saw greater than 80% knockdown of the protein.

[2] = tested on: Chinese hamster ovarian (CHO) cells; experiment: β-galactosidase reporter gene transfection in CHO cells; assay type: cell-based
Method: The reporter gene was first mixed with the lipids in potassium phosphate buffer (PBS) at room temperature. We tested two different lipid/DNA ratios (5:1; and 20:1) while keeping the zwitterionic/DOTAP ratio constant at 1:1. Next, the lipid/DNA complexes were added to the cells. The amount of DNA used was the same as used in the naked DNA control (no lipid), and the negative control was compound 4 without DNA. After incubation at 37° C. and 5% CO2 for 2 h, the medium was removed and fresh growth medium was added. Transfection efficiencies were assessed after 48 h using the β-galactosidase enzyme assay in conjunction with a standard curve. The efficiency of each transfection was calculated as β-gal activity normalized to total protein.
Transfection assays were performed using the well established beta-galactosidase transfection assay. In these experiments the beta-galactosidase gene is transfected into cells. Next, the expressed enzyme then cleaves a chemiluminescent reporter that is detected. […]
Chinese hamster ovarian cells (CHO, ATCC, Manassas, Va.) were cultured in complete F12K media (ATCC) containing 10% fetal calf serum (Sigma) and 1% penicillin and streptomycin (500 IU/ml and 5000 μg/ml, respectively, Mediatech, Herndon, Va.) at 37° C. in 5% CO2 with humidity. […] Transfection efficiencies were assessed 24 h to 48 h post transfection depending on the experimental design. […]

[3] = tested on: CHO cells; experiment: Gene transfection efficiency in a cell population by optical microscopy; assay type: cell-based, Chinese hamster; conditions: reporter gene β-gal
Text: Importantly, more than 70% of the cells had been transfected as compared to less than 40% when using other transfection reagents.

[4] = tested on: CHO cells; experiment: Cytotoxicity, formazan-based proliferation assay and total protein assay, CHO cells; conditions: for cytotoxicity (cell proliferation/number as percentage of non-treated cells): 24 hours after addition
Method: Cytotocixity experiments were also performed with CHO and L6 cells using a formazan-based proliferation assay and a total protein assay. The cells were seeded onto a 96-multiwell plate with an appropriate density of 1×10^4 cells per well. […] After another 24 hours, cell proliferation/number was determined and expressed as a percentage of non-treated cells.
Cytotoxicity was assessed using both a formazan-based proliferation assay (CellTiter 96 AQueous One Solution Cell Proliferation Assay kit, Promega) and a total protein-based assay (Pierce). Briefly, CHO cells were seeded onto a multi-well microtiter plate with an appropriate density, depending on the size of the well (e.g., 1×10^4 cells per well in a 96-well plate). After 48 h, MTS substrate was added to each well and the plate and incubated for 4 h at 37° C. in a humidified, 5% CO2 incubator. The amount of soluble formazan produced by cellular reduction of the substrates MTS was recorded at 490 nm using a multi-well plate reader. For the total protein-based proliferation assay, cells were lysed at the same time when transfection efficiency was assayed. A 5 μL of lysates were transferred to a separate multi-well plate. Total protein contents were assessed using the Coomassie Blue protein kit (Pierce, Rockford, Ill.) following the manufacturer protocol. Negative and positive controls were non-treated cells and commercial lipids treated cells, respectively. The proliferation results were expressed as percentages of non-treated cells.

[5] = tested on: L6 cells; experiment: Cytotoxicity, formazan-based proliferation assay and total protein assay, L6 cells; assay type: cell-based; conditions: 24 hours after addition
[6] = Differential scanning calorimeter (DSC) trace of hydrated amphiphile; assay type: physicochemical
[7] = tested on: calf thymus DNA; experiment: Ethidium bromide displacement fluorescence assay; assay type: binding; conditions: fluorescence intensity as a function of vector/DNA charge ratio
Method: The propensity of the lipids to bind DNA was measured via an ethidium bromide displacement fluorescence assay. This assay entailed measuring the reduction of the fluorescence intensity of the DNA-intercalated ethidium bromide, as this fluorescent probe is displaced by the cationic amphiphile. […] The results obtained with DOTAP, DOTAP/DOPE, and DOPC/DOTAP are consistent with previous reports. A 1:1 assembly is formed between the lipids and DNA.
Binding studies were carried out by competitive displacement fluorimetric assay with DNA-bound ethidium bromide. This assay involves the addition of aliquots of the compound to a 3 mL solution of EthBr (1.3 μM) and calf thymus DNA (3 μM) in buffer (100 mM NaCl, 100 mM Tris, pH 7.4) with the decrease of fluorescence (λexc=546 nm, λem=600 nm; 1 cm path length glass cuvette, slit width 3 nm) recorded after 5 min equilibrium time following each addition.

[8] = Liposome average diameter by dynamic light scattering; assay type: physicochemical; conditions: extruded through 50 nm membrane, Tris buffer pH 7.4
Text: (§1) It is likely that 4 will form bilayers. […] After 20 extrusions, a homogeneous liposome solution was observed.

[9] = tested on: esterase
Method: Next, we prepared vesicles of 4, 4/DOTAP, and DOPC/DOTAP. A chloroform solution containing 4, 4/DOTAP, or DOPC/DOTAP was added to a pear shaped flask and the solution was evaporated under vacuum leaving a thin film deposited onto the flask wall. One mL of Tris buffer (100 mM Tris, 100 mM NaCl, pH 7.4) was then added and the film was peeled off by vortexing. The milky aqueous suspension was extruded through a polycarbonate membrane (50 nm) using an Aventi polar lipids mini-extruder. After 20 extrusions, a homogeneous liposome solution was observed.

[10] = Transmission electron micrographs (TEM) of vesicles; assay type: physicochemical
Text: as §1

## 1,2-Di-tetradecanoyl-3-Lys-Trp-Lys-rac-glycerol
[1]
  knockdown of the protein: greater than 80%
[2]; CHO cells, Example 15, β-gal reporter gene
  transfection capability: high transfection capability
[3]
  cells transfected: more than 70%
[4]; CHO cells, Example 16, MTS and total protein assays
  cell cytotoxicity: minimal cell cytotoxicity

## NCCOP(=O)(O)OCC(COC(=O)CCCCCCCCCCC(=O)OCc1ccccc1)OC(=O)CCCCCCCCCCC(=O)OCc1ccccc1 (racemic) [1,2-Di-dodecanedioyl benzyl ester-3-phosphoethanolamine-rac-glycerol]
[4]
  cell cytotoxicity: minimal cell cytotoxicity

## C[N+](C)(C)CCOP(=O)([O-])OCC(COC(=O)CCCCCCCCCCC(=O)OCc1ccccc1)OC(=O)CCCCCCCCCCC(=O)OCc1ccccc1 (racemic) [Compound 4, 1,2-Di-dodecanedioyl benzyl ester-3-phosphocholine-rac-glycerol]
[5]
  cytotoxicity (cell proliferation/number as percentage of non-treated cells): None of the amphiphiles showed significant cytotoxicity
[6]
  phase-transition temperature: ~44 °C
[7]
  displacement of DNA-intercalated ethidium bromide (fluorescence intensity): do not displace EtBr
[2]; assessed after 48 h, result in words
  transfection efficiency (β-gal activity normalized to total protein): does not transfect DNA
[8]
  average diameter of the liposomes: 79 nm
[4]; CHO cells
  cytotoxicity (cell proliferation/number as percentage of non-treated cells): None of the amphiphiles showed significant cytotoxicity
[9]
  time to loss of 4: four
[9]; esterase added to liposomes prepared from 4, HPLC
  time to complete hydrolysis of 4 to yield 5: 8 h
[10]
  average size of vesicular organizations: about 100 nM

## CCCCCCCC/C=C\CCCCCCCC(=O)OC[C@H](COP(=O)([O-])OCC[N+](C)(C)C)OC(=O)CCCCCCC/C=C\CCCCCCCC [DOPC, dioleylphosphatidyl choline]
[7]
  displacement of DNA-intercalated ethidium bromide (fluorescence intensity): do not displace EtBr

## CCCCCCCC/C=C\CCCCCCCC(=O)OC[C@H](COP(=O)(O)OCCN)OC(=O)CCCCCCC/C=C\CCCCCCCC [DOPE, dioleylphosphatidyl ethanolamine]
[7]
  displacement of DNA-intercalated ethidium bromide (fluorescence intensity): do not displace EtBr

## CCCCCCCC/C=C\CCCCCCCC(=O)OCC(C[N+](C)(C)C)OC(=O)CCCCCCC/C=C\CCCCCCCC (stereo not shown) [DOTAP, 1,2-dioleoyloxy-3-(trimethylammonio)-propane, reference compound]
[5]
  cytotoxicity (cell proliferation/number as percentage of non-treated cells): None of the amphiphiles showed significant cytotoxicity
[7]
  displacement of DNA-intercalated ethidium bromide (fluorescence intensity): fluorescence intensity decreases
[4]; CHO cells
  cytotoxicity (cell proliferation/number as percentage of non-treated cells): None of the amphiphiles showed significant cytotoxicity
